From patent US20120035218A1, “PEST CONTROL COMPOSITION” (SUMITOMO CHEMICAL COMPANY, LIMITED, priority 2010, published 2012)

Tested on: cat fleas
Experiment: Cat flea emergence inhibition from eggs on treated flea-rearing medium
Format: in vivo
Details: 20 flea eggs, after approximately three weeks, corrected against acetone control
Description: Six gram quantities of medium for rearing fleas (mixed to make sand/powdered feed/dry yeast/dry bovine blood=80/16/3/1 wt %) were placed in vials. Acetone solutions were prepared so that the hydrazide compounds and pyriproxyfen would have the concentrations (wt % versus the medium) shown in Table 2 in the treated medium for rearing fleas. The medium was treated by 1.0 mL of the acetone solution, stirred until homogeneous, and dried. Filter paper (TOYO No. 2; 3.8 cm in diameter) was placed on aluminum dishes 3.8 cm in diameter, and 20 flea eggs were placed on the filter paper using a suitably moistened brush. A quantity of 1.0 g of the dried, treated medium was placed evenly on top of the filter paper on which the eggs rested, and the aluminum dishes were placed in resin petri dishes and stored at a temperature of 26° C. and humidity of 85-95%. Medium that had been treated only by acetone was also processed by the same method as a control group. After approximately three weeks, the emergence of the cat fleas was examined, and the emergence inhibition rate was calculated by the following formula.
Corrected emergency inhibition rate=(C−T)÷C×100
C: Emergence rate of untreated control group
T: Emergence rate of treated group

[1] = hydrazide compound 0.4 × 10^−4 % in combination with pyriproxyfen 10^−8 % (wt % versus the medium)
[2] = hydrazide compound alone, 0.4 × 10^−4 % (wt % versus the medium)

O=C(CCC(F)(F)F)NNc1cc(C2=NOC(c3cc(Cl)cc(Cl)c3)(C(F)(F)F)C2)ccc1Cl (centres unmarked) [Hydrazide compound (17), N′-{5-[5-(3,5-dichlorophenyl)-5-trifluoromethyl-4,5-dihydroisoxazol-3-yl]-2-chlorophenyl}-4,4,4-trifluorobutyrohydrazide]
Emergence inhibition rate (%) [1]: 63% | Emergence inhibition rate (%) [2]: 6.3%

CC(COc1ccc(Oc2ccccc2)cc1)Oc1ccccn1 (centres unmarked) [Pyriproxyfen, 4-phenoxyphenyl=2-(pyridyloxy)propyl=ether, reference compound]
Emergence inhibition rate (%) (pyriproxyfen alone, 10^−8 % (wt % versus the medium)): 4.0%

CN(NC(=O)CCC(F)(F)F)c1cc(C2=NOC(c3cc(Cl)cc(Cl)c3)(C(F)(F)F)C2)ccc1Cl (centres unmarked) [Hydrazide compound (31), N′-methyl-N′-{2-chloro-5-[5-(3,5-dichlorophenyl)-5-trifluoromethyl-4,5-dihydroisoxazol-3-yl]phenyl}-4,4,4-trifluorobutyrohydrazide]
Emergence inhibition rate (%) [1]: 86% | Emergence inhibition rate (%) [2]: 34%
